Results taken from ChEMBL document CHEMBL4742398, “Heterocyclyl substituted pyrrolopyridines that are inhibitors of the cdk12 kinase” (2019).

Assays:
[1] = Decrease in nuclear foci in human DM1 fibroblast for 24 hrs by fluorescent in situ hybridization assay; format: functional
CDK12/Cyclin K = CDK12/Cyclin K (Homo sapiens, UniProt Q9NYV4); assay: Inhibition of CDK12/cyclinK (unknown origin) using RBER-IRStide as substrate and in presence of ATP preincubated for 30 mins followed by addition of substrate measured after 1 hr by ADP-Glo reagent assay; format: protein-complex assay
CDK12/Cyclin K, sequence (O75909 whole entry): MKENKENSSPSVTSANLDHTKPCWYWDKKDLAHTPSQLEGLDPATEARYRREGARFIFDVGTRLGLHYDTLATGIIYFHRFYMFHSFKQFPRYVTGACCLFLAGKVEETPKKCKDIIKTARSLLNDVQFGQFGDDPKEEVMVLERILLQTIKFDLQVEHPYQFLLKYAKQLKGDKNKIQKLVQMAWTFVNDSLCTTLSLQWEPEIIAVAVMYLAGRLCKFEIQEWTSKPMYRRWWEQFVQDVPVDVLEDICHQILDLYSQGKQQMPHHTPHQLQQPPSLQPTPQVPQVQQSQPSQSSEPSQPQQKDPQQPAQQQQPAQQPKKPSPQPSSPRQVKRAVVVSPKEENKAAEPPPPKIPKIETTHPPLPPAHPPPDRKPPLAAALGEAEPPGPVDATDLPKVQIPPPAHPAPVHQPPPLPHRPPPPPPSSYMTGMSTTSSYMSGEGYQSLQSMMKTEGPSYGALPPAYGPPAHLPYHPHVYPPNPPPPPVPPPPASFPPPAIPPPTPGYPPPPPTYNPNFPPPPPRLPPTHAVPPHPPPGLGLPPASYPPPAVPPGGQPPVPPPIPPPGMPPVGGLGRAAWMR
CDK12/Cyclin K, sequence (Q9NYV4 whole entry): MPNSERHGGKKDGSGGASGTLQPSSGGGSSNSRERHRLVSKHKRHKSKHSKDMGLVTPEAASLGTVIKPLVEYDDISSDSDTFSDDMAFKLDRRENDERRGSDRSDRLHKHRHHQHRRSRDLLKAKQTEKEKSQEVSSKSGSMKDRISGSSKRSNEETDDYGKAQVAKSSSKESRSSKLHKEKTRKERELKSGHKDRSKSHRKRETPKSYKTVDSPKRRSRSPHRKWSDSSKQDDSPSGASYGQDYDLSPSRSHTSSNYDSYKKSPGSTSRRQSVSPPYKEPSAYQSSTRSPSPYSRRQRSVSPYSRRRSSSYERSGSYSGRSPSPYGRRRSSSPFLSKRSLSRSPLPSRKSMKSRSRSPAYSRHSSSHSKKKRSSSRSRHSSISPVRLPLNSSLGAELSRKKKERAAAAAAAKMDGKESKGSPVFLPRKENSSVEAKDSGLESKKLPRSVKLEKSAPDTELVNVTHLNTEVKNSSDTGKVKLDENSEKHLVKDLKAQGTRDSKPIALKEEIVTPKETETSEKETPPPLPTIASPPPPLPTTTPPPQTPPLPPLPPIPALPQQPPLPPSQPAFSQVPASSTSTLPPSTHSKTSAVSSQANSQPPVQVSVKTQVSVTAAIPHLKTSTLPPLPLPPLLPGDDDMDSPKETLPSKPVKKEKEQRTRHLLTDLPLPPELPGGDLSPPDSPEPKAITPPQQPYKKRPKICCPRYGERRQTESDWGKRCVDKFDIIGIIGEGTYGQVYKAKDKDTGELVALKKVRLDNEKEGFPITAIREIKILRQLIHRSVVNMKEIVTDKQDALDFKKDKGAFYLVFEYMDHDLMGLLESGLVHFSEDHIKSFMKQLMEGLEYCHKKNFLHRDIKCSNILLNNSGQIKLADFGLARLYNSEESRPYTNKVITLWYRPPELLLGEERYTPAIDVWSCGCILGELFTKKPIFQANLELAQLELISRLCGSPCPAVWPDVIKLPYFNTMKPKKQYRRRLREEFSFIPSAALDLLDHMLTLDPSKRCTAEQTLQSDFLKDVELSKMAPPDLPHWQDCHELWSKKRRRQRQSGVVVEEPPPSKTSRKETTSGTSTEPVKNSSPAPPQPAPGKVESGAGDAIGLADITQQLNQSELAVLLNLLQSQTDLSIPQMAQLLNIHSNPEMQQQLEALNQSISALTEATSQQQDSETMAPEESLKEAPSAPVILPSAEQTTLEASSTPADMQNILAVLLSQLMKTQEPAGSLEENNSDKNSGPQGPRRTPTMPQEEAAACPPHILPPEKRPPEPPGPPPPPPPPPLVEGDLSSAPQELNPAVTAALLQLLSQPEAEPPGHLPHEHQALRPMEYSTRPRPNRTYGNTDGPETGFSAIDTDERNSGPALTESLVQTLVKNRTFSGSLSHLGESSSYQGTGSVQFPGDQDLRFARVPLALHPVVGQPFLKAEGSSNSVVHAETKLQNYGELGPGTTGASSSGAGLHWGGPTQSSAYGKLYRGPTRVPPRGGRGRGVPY

Row | Compound | IC50 [1] [µM] | IC50 (CDK12/Cyclin K) [µM]
1 | CCC(=O)N1CCC[C@H]1C(=O)NCCc1cc2c(-c3cnn4ncccc34)ccnc2[nH]1 | 10 | –
2 | O=C(CCl)Nc1ccc(C(=O)N2CCC(c3cc4c(-c5cnn6ncccc56)ccnc4[nH]3)C2)cc1 (stereo not drawn) | < 1 | –
3 | C=CC(=O)N1CCC[C@H]1C(=O)NCCc1cc2c(-c3cnn(C)c3)ccnc2[nH]1 | 10 | –
4 | c1cc(-c2ccc3cn[nH]c3c2)c2cc[nH]c2n1 | 10 | –
5 | CN(C)C/C=C/C(=O)N1CC[C@@H](OCC(=O)N2CCC(c3cc4c(-c5cnn6ncccc56)ccnc4[nH]3)C2)C1 (stereo partly drawn) | 1 | –
6 | C=CC(=O)N1CC(C(=O)NCCc2cc3c(-c4cnn5ncccc45)ccnc3[nH]2)C1 | 1 | –
7 | C=CC(=O)Nc1ccc(C(=O)N2CCN(Cc3cc4c(-c5cnn6ncccc56)ccnc4[nH]3)CC2)cc1 | 1 | –
8 | C=CC(=O)N1CCC[C@@H]1C(=O)NCCc1cc2c(-c3cnn4ncccc34)c(Cl)cnc2[nH]1 | < 1 | –
9 | O=C(CCl)Nc1cccc(C(=O)N2CC[C@H](c3cc4c(-c5cnn6ncccc56)ccnc4[nH]3)C2)c1 | < 1 | –
10 | C=C(C)C(=O)N1CCC[C@H]1C(=O)NCCc1cc2c(-c3cnn4ncccc34)ccnc2[nH]1 | 10 | –
11 | C=CC(=O)Nc1ccc(C(=O)N2CCC(c3cc4c(-c5cnn6ncccc56)ccnc4[nH]3)C2)cc1 (stereo not drawn) | < 1 | –
12 | C=CC(=O)Nc1ccc(C(=O)NCc2cc3c(-c4cnn5ncccc45)ccnc3[nH]2)cc1 | 1 | –
13 | C[C@@H](Cl)C(=O)N1CCC[C@@H]1C(=O)N1CCC(c2cc3c(-c4cnn5ncccc45)ccnc3[nH]2)C1 (stereo partly drawn) | 1 | –
14 | CN(C)C/C=C/C(=O)N1CCC[C@@H](C(=O)N2CCC(c3cc4c(-c5cnn6ncccc56)ccnc4[nH]3)C2)C1 (stereo partly drawn) | 1 | –
15 | N#CN1CCC[C@H](C(=O)NCCc2cc3c(-c4cnn5ncccc45)ccnc3[nH]2)C1 | 1 | –
16 | Cc1cc2c(-c3cnn4ncccc34)ccnc2[nH]1 | < 1 | –
17 | CC(C)(CCl)C(=O)N1CCC[C@H]1C(=O)NCCc1cc2c(-c3cnn4ncccc34)ccnc2[nH]1 | 10 | –
18 | c1cnn2ncc(-c3ccnc4[nH]c(CN5CCNCC5)cc34)c2c1 | – | ≥ 1
19 | C=CC(=O)Nc1cccc(C(=O)N2CCC(c3cc4c(-c5cnn6ncccc56)ccnc4[nH]3)C2)c1 (stereo not drawn) | < 1 | –
20 | C=CC(=O)N1CCC[C@@H](C(=O)NCCc2cc3c(-c4cnn5ncccc45)ccnc3[nH]2)C1 | 1 | –

Row | Compound | IC50 [1] [µM] | IC50 (CDK12/Cyclin K) [µM]
21 | COc1ccc2c(-c3ccnc4[nH]ccc34)cnn2n1 | 10 | –
22 | C=CC(=O)Nc1ccc(C(=O)NCCc2cc3c(-c4cnn5ncccc45)ccnc3[nH]2)cc1 | < 1 | –
23 | OCc1cc2c(-c3cnn4ncccc34)ccnc2[nH]1 | 1 | –
24 | c1cnn2ncc(-c3ccnc4[nH]ccc34)c2c1 | < 1 | –
25 | C=CC(=O)N1CCC[C@@H]1C(=O)NCCc1cc2c(-c3cnn4ncccc34)ccnc2[nH]1 | < 1 | –
26 | O=C([C@H]1CCCN1C(=O)CCl)N1CCC(c2cc3c(-c4cnn5ncccc45)ccnc3[nH]2)C1 (stereo partly drawn) | < 1 | –
27 | C=CC(=O)N1C[C@H](F)C[C@H]1C(=O)NCCc1cc2c(-c3cnn4ncccc34)ccnc2[nH]1 | < 1 | –
28 | C=CC(=O)N1CCC[C@H]1C(=O)OCCc1cc2c(-c3cnn4ncccc34)ccnc2[nH]1 | < 1 | –
29 | C=CC(=O)N1CC2(CC2)C[C@H]1C(=O)NCCc1cc2c(-c3cnn4ncccc34)ccnc2[nH]1 | 1 | –
30 | C=CC(=O)Nc1cccc(C(=O)N2CC[C@H](c3cc4c(-c5cnn6ncccc56)ccnc4[nH]3)C2)c1 | < 1 | –
31 | CN(C)C/C=C/C(=O)N1CCC[C@H]1C(=O)NCCc1cc2c(-c3cnn4ncccc34)ccnc2[nH]1 | 10 | –
32 | C=CC(=O)Nc1cccc(C(=O)N2CCN(Cc3cc4c(-c5cnn6ncccc56)ccnc4[nH]3)CC2)c1 | 1 | –
33 | O=C(CCl)Nc1cccc(C(=O)N2CCC(c3cc4c(-c5cnn6ncccc56)ccnc4[nH]3)C2)c1 (stereo not drawn) | < 1 | –
34 | C=CC(=O)N1CCCC[C@H]1C(=O)NCCc1cc2c(-c3cnn4ncccc34)ccnc2[nH]1 | 1 | –
35 | CN(C)C/C=C/C(=O)N1CCC(CC(=O)N2CCC(c3cc4c(-c5cnn6ncccc56)ccnc4[nH]3)C2)CC1 (stereo not drawn) | 10 | –
36 | O=C(CCl)Nc1cccc(C(=O)N2CC[C@@H](c3cc4c(-c5cnn6ncccc56)ccnc4[nH]3)C2)c1 | < 1 | –
37 | C=CC(=O)NC(Cc1ccccc1)C(=O)NCCc1cc2c(-c3cnn4ncccc34)ccnc2[nH]1 (stereo not drawn) | 1 | –
38 | C=CC(=O)Nc1cccc(C(=O)NCCc2cc3c(-c4cnn5ncccc45)ccnc3[nH]2)c1 | < 1 | –
39 | C=CC(=O)N1CCC[C@H]1C(=O)NCCc1cc2c(-c3cnn4ncccc34)ccnc2[nH]1 | < 1 | –
40 | C=CC(=O)Nc1ccc(C(=O)N2CCC(c3cc4c(-c5c[nH]c6ccccc56)ccnc4[nH]3)C2)cc1 (stereo not drawn) | 1 | –

Row | Compound | IC50 [1] [µM] | IC50 (CDK12/Cyclin K) [µM]
41 | C=CC(=O)N1CCOC[C@@H]1C(=O)NCCc1cc2c(-c3cnn4ncccc34)ccnc2[nH]1 | < 1 | –
42 | CN(C)C/C=C/C(=O)Nc1ccc(C(=O)N2CCC(c3cc4c(-c5cnn6ncccc56)ccnc4[nH]3)C2)cc1 (stereo not drawn) | < 1 | –
43 | NC(=O)c1cc2c(-c3cnn4ncccc34)ccnc2[nH]1 | 1 | –
44 | CN(C)C/C=C/C(=O)Nc1cccc(C(=O)NCCc2cc3c(-c4cnn5ncccc45)ccnc3[nH]2)c1 | 10 | –
45 | C/C=C/C(=O)N1CCC[C@H]1C(=O)NCCc1cc2c(-c3cnn4ncccc34)ccnc2[nH]1 | 1 | –
46 | CC#CC(=O)N1CCC[C@H]1C(=O)NCCc1cc2c(-c3cnn4ncccc34)ccnc2[nH]1 | 1 | –
47 | C#CC(=O)Nc1cccc(C(=O)N2CCC(c3cc4c(-c5cnn6ncccc56)ccnc4[nH]3)C2)c1 (stereo not drawn) | < 1 | –
48 | C=CC(=O)N1CCC[C@H]1C(=O)N1CCN(Cc2cc3c(-c4cnn5ncccc45)ccnc3[nH]2)CC1 | 10 | –
49 | C=CC(=O)N1CCC[C@H](C(=O)NCCc2cc3c(-c4cnn5ncccc45)ccnc3[nH]2)C1 | < 1 | –
50 | c1cc(-c2ccc3[nH]nnc3c2)c2cc[nH]c2n1 | 10 | –
51 | CNC(=O)c1cc2c(-c3cnn4ncccc34)ccnc2[nH]1 | 1 | –
52 | C=CC(=O)N1CCC[C@H](C(=O)NCCc2cc3c(-c4cnn5ncccc45)c(Cl)cnc3[nH]2)C1 | 1 | –
53 | C=CC(=O)Nc1cc(C(=O)N2CCC(c3cc4c(-c5cnn6ncccc56)ccnc4[nH]3)C2)ccc1OC (stereo not drawn) | < 1 | –
54 | C=CC(=O)N1CCC[C@H]1C(=O)N1CC[C@@H](c2cc3c(-c4cnn5ncccc45)ccnc3[nH]2)C1 | < 1 | –
55 | CC(C)=CC(=O)N1CCC[C@H]1C(=O)NCCc1cc2c(-c3cnn4ncccc34)ccnc2[nH]1 | 1 | –
56 | C=CC(=O)NC(C)C(=O)NCCc1cc2c(-c3cnn4ncccc34)ccnc2[nH]1 (stereo not drawn) | 1 | –
57 | c1ccc(Cc2cc3c(-c4cnn5ncccc45)ccnc3[nH]2)cc1 | 10 | –
58 | C=CC(=O)N1CCC1C(=O)NCCc1cc2c(-c3cnn4ncccc34)ccnc2[nH]1 (single isomer, unassigned) | < 1 | –
